Experiment [1] concerns the target human CB2 receptor (hCB2) (Homo sapiens, UniProt P34972). Nature of the experiment: cAMP assay at human CB2 receptor. It counts as cell-based. The following applies: hCB2R, maximum measurable range 30 μM. The protocol: (§1) TR-FRET was measured using a 330-380 nm excitation filter, 615 nm and 665 nm emission filters, dichroic minor 380 nm and Z=10 mm. cAMP concentrations in each well were back-calculated from a cAMP standard curve run concurrently during each assay. Each plate contained 16 wells of forskolin stimulated cells and 16 wells of forskolin plus 1 μM CP55,940-treated cells. Concentrations of cAMP were expressed as a percent of the difference of these two groups of wells.

The test system of the next experiment is male Sprague-Dawley rats. Nature of the experiment: Anti-hyperalgesia in the Complete Freund's Adjuvant (CFA) model of inflammatory pain. Format: in vivo. The following applies: PO dose 3 mg/kg; 1 hr after dosing; thermal hyperalgesia; rat; read-out: % MPE (1 hr), paw withdrawal latency after CFA injection. Here is the method: The anti-hyperalgesic effects of test compounds in the Complete Freund's Adjuvant (CFA) model of inflammatory pain were determined essentially as described in U.S. Pat. No. 7,517,874 using male Sprague-Dawley rats (Hsd: Sprague-Dawley®SD®, Harlan, Indianapolis, Ind.) weighing 200-300 grams.
Test compounds were prepared in a Cremaphor vehicle mixture of 1:1:18 CremophorEL:ethanol:water. Cremophor was obtained from Sigma Chemical (St. Louis, Mo.). The vehicle mixture or vehicle mixture plus test compound were each administered orally.
Assessment of thermal hyperalgesia: Baseline and post-treatment paw withdrawal latencies to a noxious thermal stimulus were measured using a plantar test apparatus (Ugo Basile; obtained from Stoelting, Wood Dale, Ill.). This apparatus generates an infrared heat source that is linearly increasing in intensity. To avoid tissue damage, the power to the heat source was cut off after 20 seconds.
Paw withdrawal latency is defined as the time required for the rat to flick its paw away from the thermal stimulus. Ibuprofen (100 mg/kg, p.o.) was used as the positive control. Paw withdrawal latencies (in seconds) were measured before (naïve paw latency, L1) and 24 hr following (CFA-inflamed paw latency, L2) a single intraplantar injection of 0.1 mL CFA (Sigma-Aldrich, cat F5881, Mycobacterium tuberculosis 1 mg/ml).
Test compounds were administered orally 23 hours following CFA injection; i.e., 1 hour prior to thermal assessment (compound treated CFA-inflamed paw latency, L3). The mean paw withdrawal latency and standard error of the mean (SEM) was determined for the injured paws for each treatment group.
Data were expressed as percent maximum […] effect (% MPE) defined as the percentage of restoration of latency of test compound-treated CFA inflamed paw as compared to the naïve paw latency.

The target in experiment [2] is human CB1 receptor (hCB1) (Homo sapiens, UniProt P21554). Nature of the experiment: cAMP assay at human CB1 receptor. The note with it: hCB1R; maximum measurable range 30 μM; read-out: EC50 (Potency at Human CB1 determined by cAMP Assay). It counts as cell-based. The protocol: The ability of each of the compounds to act as agonists or inverse agonists at human CB2 and CB1 receptors (hCB2, hCB1, respectively) and at the rat CB2 receptor (rCB2) was determined by measuring changes in intracellular cyclic AMP (cAMP) levels as described in U.S. Pat. No. 7,517,874.
human CB1 receptor (hCB1), sequence (P21554 whole entry): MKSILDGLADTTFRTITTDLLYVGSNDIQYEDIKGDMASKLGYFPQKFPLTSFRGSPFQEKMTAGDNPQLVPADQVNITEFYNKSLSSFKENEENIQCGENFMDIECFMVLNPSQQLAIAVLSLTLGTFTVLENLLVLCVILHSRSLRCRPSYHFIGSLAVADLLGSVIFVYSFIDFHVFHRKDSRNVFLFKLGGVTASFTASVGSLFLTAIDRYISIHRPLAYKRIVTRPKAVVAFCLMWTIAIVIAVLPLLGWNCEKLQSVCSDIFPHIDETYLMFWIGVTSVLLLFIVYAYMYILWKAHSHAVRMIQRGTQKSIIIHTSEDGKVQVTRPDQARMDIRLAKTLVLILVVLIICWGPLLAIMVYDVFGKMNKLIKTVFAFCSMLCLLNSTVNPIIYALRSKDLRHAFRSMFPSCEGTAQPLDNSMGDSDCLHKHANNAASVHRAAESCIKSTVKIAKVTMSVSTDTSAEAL
as §1, with “wells. Concentration-response data including EC50 (the concentration of compound producing 50% of the maximal response) and intrinsic activity (the percent maximal activation compared to full activation by CP55, 940) were determined using a four-parameter non-linear regression algorithm (CambridgeSoft Bioassay).” for “wells.”
For orientation: Cyclic AMP is a second messenger, typically raised through Gs and lowered through Gi signalling.

[3] abbreviates: read-out: EC50 (Potency at Human CB2 determined by cAMP Assay).
[4] abbreviates: EC50 (Potency at Human CB2 determined by cAMP Assay).

The structures appear in SMILES notation. pEC50: −log10 of the molar value. Like-named read-outs stand apart in the source and are kept apart here. A value given as a limit tells only on which side of the number the result lay.

human CB2 receptor (hCB2), sequence (P34972 whole entry): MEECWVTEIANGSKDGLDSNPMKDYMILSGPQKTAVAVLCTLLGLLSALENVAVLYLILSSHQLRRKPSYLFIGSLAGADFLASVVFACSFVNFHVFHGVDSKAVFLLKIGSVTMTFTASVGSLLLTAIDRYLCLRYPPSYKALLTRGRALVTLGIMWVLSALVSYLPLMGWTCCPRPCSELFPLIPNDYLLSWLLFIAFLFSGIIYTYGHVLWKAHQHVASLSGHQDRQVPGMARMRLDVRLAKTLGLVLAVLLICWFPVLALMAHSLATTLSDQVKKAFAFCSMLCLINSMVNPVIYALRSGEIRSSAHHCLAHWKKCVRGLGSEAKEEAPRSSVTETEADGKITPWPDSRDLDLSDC

With `CC(C)(C)[C@H](NC(=O)n1nc(-c2ccc(F)c(F)c2)c2c1CCOC2)C(N)=O` [Compound 99, (S)—N-(1-amino-3,3-dimethyl-1-oxobutan-2-yl)-3-(3,4-difluorophenyl)-6,7-dihydropyrano[4,3-c]pyrazole-1(4H)-carboxamide], the pEC50 in experiment [1] (setting [3]) is under 6.00; in experiment [2] it was over 6.00. Moreover, in the experiment on male Sprague-Dawley rats, the inhibition in vivo at 3 mg/kg is 68%.
Consider `CC(C)(C)[C@H](NC(=O)n1nc(-c2cc(Cl)ccc2F)c2c1CCOC2)C(=O)NCCO` [Compound 86, (S)-3-(5-chloro-2-fluorophenyl)-N-(1-(2-hydroxyethylamino)-3,3-dimethyl-1-oxobutan-2-yl)-6,7-dihydropyrano[4,3-c]pyrazole-1(4H)-carboxamide], for which the pEC50 in experiment [1] (setting [4]) and in experiment [2] was over 6.00 in each case. Also, in the experiment with male Sprague-Dawley rats, the inhibition in vivo at 3 mg/kg amounted to 27%.
As for `CN1CCCc2c1c(-c1ccc(F)c(F)c1)nn2C(=O)N[C@H](C(=O)NCCO)C(C)(C)C` [Compound 91, (S)-3-(3,4-difluorophenyl)-N-(1-(2-hydroxyethylamino)-3,3-dimethyl-1-oxobutan-2-yl)-4-methyl-4,5,6,7-tetrahydro-1H-pyrazolo[4,3-b]pyridine-1-carboxamide], the pEC50 in experiment [1] (setting [3]) and in experiment [2] was over 6.00 throughout. In addition, the inhibition in vivo at 3 mg/kg in the experiment on male Sprague-Dawley rats amounted to 47%.
Regarding `CN1CCCc2c1c(-c1cc(F)ccc1F)nn2C(=O)N[C@H](C(=O)NCCO)C(C)(C)C` [Compound 92, (S)-3-(2,5-difluorophenyl)-N-(1-(2-hydroxyethylamino)-3,3-dimethyl-1-oxobutan-2-yl)-4-methyl-4,5,6,7-tetrahydro-1H-pyrazolo[4,3-b]pyridine-1-carboxamide], the pEC50 in experiment [1] (setting [4]) and in experiment [2] was over 6.00 each time. In the experiment on male Sprague-Dawley rats, the inhibition in vivo at 3 mg/kg is 23%.
For the compound `CCN1CCc2c(c(-c3cc(F)ccc3F)nn2C(=O)N[C@H](C(=O)O)C(C)(C)C)C1` [Compound 82, (S)-2-(3-(2,5-difluorophenyl)-5-ethyl-4,5,6,7-tetrahydro-1H-pyrazolo[4,3-c]pyridine-1-carboxamido)-3,3-dimethylbutanoic acid], the pEC50 in experiment [1] (setting [4]) and in experiment [2] was under 4.52 each time.
On to `CN1CCc2c(c(-c3cc(F)c(F)cc3F)nn2C(=O)N[C@H](C(=O)NCCCO)C(C)(C)C)C1` [Compound 80, (S)—N-(1-(3-hydroxypropylamino)-3,3-dimethyl-1-oxobutan-2-yl)-5-methyl-3-(2,4,5-trifluorophenyl)-4,5,6,7-tetrahydro-1H-pyrazolo[4,3-c]pyridine-1-carboxamide], for which the pEC50 in experiment [1] (setting [3]) is under 6.00; in experiment [2], over 6.00.
The corresponding values for `CN1CCc2c(c(-c3cc(F)c(F)cc3F)nn2C(=O)N[C@H](C(=O)N2CCC[C@@H]2C(N)=O)C(C)(C)C)C1` [Compound 75, N—((S)-1-((R)-2-carbamoylpyrrolidin-1-yl)-3,3-dimethyl-1-oxobutan-2-yl)-5-methyl-3-(2,4,5-trifluorophenyl)-4,5,6,7-tetrahydro-1H-pyrazolo[4,3-c]pyridine-1-carboxamide] are under 6.00 and over 6.00.
Turning to `CNC(=O)[C@@H](NC(=O)n1nc(-c2cc(F)c(F)cc2F)c2c1CN(C)CC2)C(C)(C)C` [Compound 38, (S)—N-(3,3-dimethyl-1-(methylamino)-1-oxobutan-2-yl)-6-methyl-3-(2,4,5-trifluorophenyl)-4,5,6,7-tetrahydro-1H-pyrazolo[3,4-c]pyridine-1-carboxamide], the pEC50 in experiment [1] (setting [4]) and in experiment [2] was over 6.00 throughout.
As for `CC(C)C[C@H](NC(=O)n1nc(-c2ccc(F)c(F)c2)c2c1CCN(C)C2)C(N)=O` [Compound 49, (S)—N-(1-amino-4-methyl-1-oxopentan-2-yl)-3-(3,4-difluorophenyl)-5-methyl-4,5,6,7-tetrahydro-1H-pyrazolo[4,3-c]pyridine-1-carboxamide], the pEC50 in experiment [1] (setting [4]) and in experiment [2] was over 6.00 in each case.
Consider `CNC(=O)[C@@H](NC(=O)n1nc(-c2ccc(F)c(F)c2)c2c1CCC1(C2)OCCO1)C(C)(C)C` [Compound 63, (S)-3′-(3,4-difluorophenyl)-N-(3,3-dimethyl-1-(methylamino)-1-oxobutan-2-yl)-6′,7′-dihydrospiro[[1,3]dioxolane-2,5′-indazole]-1′(4′H)-carboxamide], for which the pEC50 in experiment [1] (setting [4]) and in experiment [2] was over 6.00 throughout.
As to `COC(=O)[C@@H](NC(=O)n1nc(-c2cc(F)c(F)cc2F)c2c1CCOC2)C(C)(C)C` [Compound 34, (S)-methyl 3,3-dimethyl-2-(3-(2,4,5-trifluorophenyl)-1,4,6,7-tetrahydropyrano[4,3-c]pyrazole-1-carboxamido)butanoate], the pEC50 in experiment [1] (setting [4]) and in experiment [2] was over 6.00 throughout.
For the compound `CC(C)(C)[C@H](NC(=O)n1nc(-c2cc(F)c(F)cc2F)c2c1COCC2)C(=O)NCCO` [Compound 97, (S)—N-(1-(2-hydroxyethylamino)-3,3-dimethyl-1-oxobutan-2-yl)-3-(2,4,5-trifluorophenyl)-4,5-dihydropyrano[3,4-c]pyrazole-1(7H)-carboxamide], the pEC50 in experiment [1] (setting [4]) and in experiment [2] was over 6.00 in each case.
Consider `CN1CCc2c(c(-c3cc(F)c(F)cc3F)nn2C(=O)N[C@H](C(=O)NCCC(N)=O)C(C)(C)C)C1` [Compound 73, (S)—N-(1-(3-amino-3-oxopropylamino)-3,3-dimethyl-1-oxobutan-2-yl)-5-methyl-3-(2,4,5-trifluorophenyl)-4,5,6,7-tetrahydro-1H-pyrazolo[4,3-c]pyridine-1-carboxamide], for which the pEC50 in experiment [1] (setting [3]) was under 6.00; in experiment [2], over 6.00.
The corresponding values for `CN1CCc2c(c(-c3cc(F)c(F)cc3F)nn2C(=O)N[C@H](C(N)=O)C(C)(C)C)C1` [Compound 41, (S)—N-(1-amino-3,3-dimethyl-1-oxobutan-2-yl)-5-methyl-3-(2,4,5-trifluorophenyl)-4,5,6,7-tetrahydro-1H-pyrazolo[4,3-c]pyridine-1-carboxamide] are under 6.00 and over 6.00.
The corresponding values for `CN1CCc2c(c(-c3cc(F)c(F)cc3F)nn2C(=O)N[C@H](C(=O)N2CCC[C@H](O)C2)C(C)(C)C)C1` [Compound 78] are under 6.00 and over 6.00.
On to `CNC(=O)[C@@H](NC(=O)n1nc(-c2ccc(F)c(F)c2)c2c1CN(C)CC2)C(C)(C)C` [Compound 61, (S)-3-(3,4-difluorophenyl)-N-(3,3-dimethyl-1-(methylamino)-1-oxobutan-2-yl)-6-methyl-4,5,6,7-tetrahydro-1H-pyrazolo[3,4-c]pyridine-1-carboxamide], for which the pEC50 in experiment [1] (setting [4]) and in experiment [2] was over 6.00 throughout.
For the compound `CCOC(=O)N1CCN(C(=O)[C@@H](NC(=O)n2nc(-c3cc(F)c(F)cc3F)c3c2CCN(C)C3)C(C)(C)C)CC1` [Compound 77, (S)-ethyl 4-(3,3-dimethyl-2-(5-methyl-3-(2,4,5-trifluorophenyl)-4,5,6,7-tetrahydro-1H-pyrazolo[4,3-c]pyridine-1-carboxamido)butanoyl)piperazine-1-carboxylate], the pEC50 in experiment [1] (setting [3]) was under 6.00; in experiment [2] it was over 6.00.
`CNC(=O)[C@@H](NC(=O)n1nc(-c2ccc(F)c(F)c2)c2c1CCCCN2C)C(C)(C)C` [Compound 69, (S)-3-(3,4-difluorophenyl)-N-(3,3-dimethyl-1-(methylamino)-1-oxobutan-2-yl)-4-methyl-5,6,7,8-tetrahydropyrazolo[4,3-b]azepine-1(4H)-carboxamide]: the pEC50 in experiment [1] (setting [4]) and in experiment [2] was over 6.00 throughout.

As a reminder, the pEC50 is −log10 of the EC50, conventionally taken in molar units.

(Values after patent US7741350B1 (Cara Therapeutics, Inc., priority 2009, dated 2010).)
